The OPERA property sets (Mansouri et al. 2018)

Details: not given

In order of falling melting point:
1. CC[C@]1(O)C[C@H]2C[N@](CCc3c([nH]c4ccccc34)[C@@](C(=O)OC)(c3cc4c(cc3OC)N(C)[C@H]3[C@@](O)(C(N)=O)[C@H](O)[C@]5(CC)C=CCN6CC[C@]43[C@@H]65)C2)C1  231 °C
2. SC1=NCCCN1  211 °C
3. Fc1cc2c(cc1F)Oc1cc(Br)c(Br)cc1O2  210 °C
4. c1ccc2c(c1)[nH]c1cnccc12  199 °C
5. Cc1c(N)cc([N+](=O)[O-])cc1C(N)=O  199 °C
6. CCC(=O)O[C@]1(C(=O)CCl)[C@@H](C)C[C@H]2[C@@H]3CCC4=CC(=O)C=C[C@]4(C)[C@@]3(F)[C@@H](O)C[C@@]21C  196 °C
7. O[C@@H]1[C@@H](O)[C@@H]2OC[C@@H](O2)[C@H]1O  183 °C
8. Cc1ccc2nc3c(ccc4ccccc43)c(C)c2c1  159 °C
9. Oc1ccncc1  150 °C
10. Cc1ccccc1C(N)=O  147 °C
11. CCOc1cccc(C(=O)O)c1  137 °C
12. CCCCCCCCCCCCNC(=N)N  136 °C
13. O=C=Nc1cccc2c(N=C=O)cccc12  130 °C
14. C#C[C@]1(O)CC[C@H]2[C@@H]3CCC4=CCCC[C@@H]4[C@H]3C(=C)C[C@@]21CC  110 °C
15. COC(=O)C1(S(=O)(=O)c2ccc(Br)cc2)CCCC1  104 °C
16. c1ccc2sc(SNC3CCCCC3)nc2c1  98 °C
17. Cc1ccc(N(SC(F)(Cl)Cl)S(=O)(=O)N(C)C)cc1  96 °C
18. CC(=O)Oc1ccccc1C(=O)OC(=O)c1ccccc1OC(C)=O  83 °C
19. Nn1cnnc1  82.5 °C
20. N#Cc1ccncc1  79 °C
21. N#Cc1cccc(C=O)c1  76.5 °C
22. CCCCn1c2ccccc2c2ccccc21  58 °C
23. COc1ccc2[nH]ccc2c1  57 °C
24. Nc1ccc(F)c(Cl)c1  45.5 °C
25. COC(=O)c1ccc(Cl)cc1  43.5 °C
26. Cc1cc(-c2ccccc2)ccc1N  43 °C
27. Nc1c(Cl)cccc1Cl  39 °C
28. c1ccc2nnccc2c1  38 °C
29. CCCCCCCCC=CCCCCCCCCCCCCO  35 °C
30. Cc1ccc(Cl)c(O)c1Cl  28 °C
31. CCOc1ccccc1C(=O)O  20.7 °C
32. O=C1CCCCCO1  -18 °C
33. OOC1CCCCC1  -20 °C
34. C=Cc1cc(C)ccc1C  -35 °C
35. BrC1CCCCC1  -56.5 °C
36. FC(F)(F)C(Cl)=C(Cl)C(F)(F)F  -67.3 °C
37. CCCCOCCOCCO  -68 °C
38. Cc1ccc(C(C)C)cc1  -68.5 °C
39. ClC=CBr  -86.7 °C
40. FC(F)C(F)(F)F  -103 °C

In order of falling boiling point:
1. O=C=Nc1cccc2c(N=C=O)cccc12  330 °C
2. OCCCc1cccnc1  284 °C
3. Cc1ccc(CCO)cc1  244 °C
4. Cc1ccc(Cl)c(O)c1Cl  237 °C
5. CCCCOCCOCCO  231 °C
6. Nc1ccc(F)c(Cl)c1  228 °C
7. O=C1CCCCCO1  215 °C
8. N#Cc1ccncc1  214 °C
9. N#Cc1cccc(C=O)c1  210 °C
10. CCN(C)c1ccccc1  204 °C
11. COc1cccc(C)c1OC  204 °C
12. Cc1ccc(Br)s1  178 °C
13. Cc1ccc(C(C)C)cc1  177 °C
14. CC(C)CC(O)CC(C)C  174 °C
15. Brc1cccnc1  173 °C
16. BrC1CCCCC1  166 °C
17. CCN(CC)CCO  163 °C
18. CCC(C)C(=O)C(C)CC (stereo unspecified)  162 °C
19. O=C(O)C(F)Cl (stereo unspecified)  162 °C
20. CC1CCC(C)C1=O (stereo unspecified)  146 °C
21. CC(C)=CCO  140 °C
22. CC(N)CN (stereo unspecified)  120 °C
23. CN1CCCCC1  107 °C
24. ClC=CBr  84.6 °C
25. FC(F)(F)C(Cl)=C(Cl)C(F)(F)F  68.5 °C
26. FC(F)C(F)(F)F  -48.5 °C

In order of falling log10 vapour pressure (mmHg):
1. FC(F)C(F)(F)F  4.02
2. CN1CCCCC1  1.29
3. CC(N)CN (stereo unspecified)  1.03
4. CC(C)CO  1.02
5. Brc1cccnc1  0.244
6. Cc1ccc(C(C)C)cc1  0.19
7. CCN(CC)CCO  0.146
8. C=Cc1cc(C)ccc1C  0
9. CC(C)CC(O)CC(C)C  -0.519
10. O=C1CCCCCO1  -0.87
11. CCCCOCCOCCO  -1.66
12. Clc1ccc(Oc2ccccc2)c(Cl)c1  -3.04
13. CCOP(=O)(SC(C)CC)SC(C)CC (stereo unspecified)  -3.05
14. Clc1ccccc1-c1cc(Cl)c(Cl)c(Cl)c1Cl  -4.16
15. O=C=Nc1cccc2c(N=C=O)cccc12  -4.47
16. Clc1ccc(-c2cc(Cl)c(Cl)cc2Cl)c(Cl)c1  -4.66
17. Cc1ccc(N(SC(F)(Cl)Cl)S(=O)(=O)N(C)C)cc1  -5.82
18. O[C@@H]1[C@@H](O)[C@@H]2OC[C@@H](O2)[C@H]1O  -7.12
19. COC(=O)NC(=S)Nc1ccccc1NC(=S)NC(=O)OC  -7.15
20. Fc1cc2c(cc1F)Oc1cc(Br)c(Br)cc1O2  -7.74
21. Brc1ccc(Oc2ccc(Br)c(Br)c2Br)c(Br)c1  -8.14

With `O=C1CCCCCO1` the ready biodegradability was “readily biodegradable”.
In the case of `CN1CCCCC1`, the ready biodegradability is reported as “not readily biodegradable”.
In the case of `COc1ccc(Nc2ccc(OC)cc2)cc1`, the ready biodegradability is reported as “not readily biodegradable”.
For `CCCCCCCCc1ccc(O)cc1`, the ready biodegradability was “not readily biodegradable”.
For `Oc1ccncc1`, the ready biodegradability was “readily biodegradable”.
For `CCN(CC)CCO`, the ready biodegradability was “not readily biodegradable”.
With `Cc1ccc(C(C)C)cc1` the ready biodegradability was “readily biodegradable”.
With `CCCCOCCOCCO` the ready biodegradability was “readily biodegradable”.
With `CC(C)CO` the ready biodegradability was “readily biodegradable”.
For `CCN(CC)c1ccc(C(=O)c2ccccc2C(=O)O)c(O)c1`, the ready biodegradability was “not readily biodegradable”.
With `c1ccc2sc(SNC3CCCCC3)nc2c1` the ready biodegradability was “not readily biodegradable”.

In order of falling log10 Henry constant (atm·m³/mol):
1. Clc1ccc(-c2cc(Cl)c(Cl)cc2Cl)c(Cl)c1  -4.11
2. CN1CCCCC1  -4.46
3. Clc1ccc(Cl)c(-c2c(Cl)c(Cl)cc(Cl)c2Cl)c1Cl  -4.62
4. CC(C)CO  -5.01
5. N#Cc1ccncc1  -6.03
6. CCCCOCCOCCO  -8.14

In order of rising log10 Koc (L/kg):
1. COc1cccc(NC(=O)N(C)C)c1  1.72
2. Nc1c(Cl)cccc1Cl  3.25
3. COC(=O)NC(=S)Nc1ccccc1NC(=S)NC(=O)OC  3.25

In order of falling log10 Koa:
1. Brc1ccc(Oc2ccc(Br)c(Br)c2Br)c(Br)c1  11.7
2. CC(C)CO  3.93

`Brc1ccc(Oc2ccc(Br)c(Br)c2Br)c(Br)c1` showed a logP of 7.37.

Same assay, conditions: fish

In order of rising log10 BCF:
1. CN1CCCCC1  0.65
2. ClC(Cl)(Cl)Cl  0.87
3. CC(CCl)OP(=O)(OC(C)CCl)OC(C)CCl (stereo unspecified)  0.9
4. BrCCBr  1.18
5. Clc1ccccc1  1.25

In order of falling log10 biotransformation half-life (days):
1. Clc1ccc(-c2cc(Cl)c(Cl)cc2Cl)c(Cl)c1  2.73
2. Brc1ccc(Oc2ccc(Br)c(Br)c2Br)c(Br)c1  1.34
3. BrCCBr  -0.83
4. Clc1ccccc1  -1.02
5. ClC(Cl)(Cl)Cl  -1.19
6. CC(CCl)OP(=O)(OC(C)CCl)OC(C)CCl (stereo unspecified)  -1.31
